Measurements: PubChem BioAssay (NCI)
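Five concentrations, 48 hours, 96-well plates. Abbreviation: GI50, concentration required for 50% inhibition of growth. TGI denotes the concentration required for complete inhibition of growth.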

Tests used:
Assay in all cases: NCI anticancer screen, dose series, 48 h
[1] = tested on: KM12 colon
[2] = tested on: M14 melanoma
[3] = tested on: SN12C renal
[4] = tested on: SF-539 CNS
[5] = tested on: CCRF-CEM leukemia
[6] = tested on: SF-268 CNS
[7] = tested on: COLO 205 colon
[8] = tested on: 786-0 renal
[9] = tested on: SNB-75 CNS
[10] = tested on: PC-3 prostate
[11] = tested on: SK-MEL-5 melanoma
[12] = tested on: OVCAR-4 ovarian
[13] = tested on: MDA-MB-435
[14] = tested on: MCF7 breast
[15] = tested on: NCI-H460 lung
[16] = tested on: UACC-257 melanoma
[17] = tested on: UACC-62 melanoma
[18] = tested on: NCI-H522 lung
[19] = tested on: SR leukemia
[20] = tested on: SW-620 colon
[21] = tested on: SK-OV-3 ovarian
[22] = tested on: U251 CNS
[23] = tested on: K-562 leukemia
[24] = tested on: A549 NSCLC
[25] = tested on: HCT-15 colon
[26] = tested on: HS 578T breast
[27] = tested on: SK-MEL-28 melanoma
[28] = tested on: OVCAR-8 ovarian
[29] = tested on: HCC-2998 colon
[30] = tested on: EKVX NSCLC
[31] = tested on: T-47D breast
[32] = tested on: NCI/ADR-RES ovarian
[33] = tested on: MDA-MB-231 breast
[34] = tested on: NCI-H226 lung
[35] = tested on: CAKI-1 renal
[36] = tested on: A498 renal
[37] = tested on: UO-31 renal
[38] = tested on: HOP-62 NSCLC
[39] = tested on: SK-MEL-2 melanoma
[40] = tested on: RPMI-8226 leukemia
[41] = tested on: TK-10 renal
[42] = tested on: HCT-116 colon
[43] = tested on: OVCAR-3 ovarian
[44] = tested on: LOX IMVI melanoma
[45] = tested on: IGROV1 ovarian
[46] = tested on: HL-60(TB) leukemia
[47] = tested on: DU-145 prostate
[48] = tested on: HOP-92 NSCLC
[49] = tested on: SF-295 CNS
[50] = tested on: OVCAR-5 ovarian
[51] = tested on: BT-549 breast
[52] = tested on: SNB-19 CNS
[53] = tested on: RXF 393 renal
[54] = tested on: ACHN renal
[55] = tested on: HT29 colon
[56] = tested on: MALME-3M melanoma
[57] = tested on: MOLT-4 leukemia

C/C(=C(/c1ccc(O)cc1)c1ccc(OCCN2CCCCCC2)cc1)c1ccccc1
GI50 [1]: 83.8 µM | TGI [1]: > 100 µM | GI50 [2]: 35.5 µM | TGI [2]: > 100 µM | GI50 [3]: > 100 µM | TGI [3]: > 100 µM | GI50 [4]: 61.3 µM | TGI [4]: > 100 µM | GI50 [5]: 76.2 µM | TGI [5]: > 100 µM | GI50 [6]: > 100 µM | TGI [6]: > 100 µM | GI50 [7]: 17.9 µM | TGI [7]: 34.4 µM | GI50 [8]: 27.1 µM | TGI [8]: > 100 µM | GI50 [9]: > 100 µM | TGI [9]: > 100 µM | GI50 [10]: 57.9 µM | TGI [10]: > 100 µM | GI50 [11]: 66.1 µM | TGI [11]: > 100 µM | GI50 [12]: > 100 µM | TGI [12]: > 100 µM | GI50 [13]: > 100 µM | TGI [13]: > 100 µM | GI50 [14]: 0.0615 µM | TGI [14]: > 100 µM | GI50 [15]: 38.2 µM | TGI [15]: > 100 µM | GI50 [16]: 48.2 µM | TGI [16]: > 100 µM | GI50 [17]: > 100 µM | TGI [17]: > 100 µM | GI50 [18]: > 100 µM | TGI [18]: > 100 µM | GI50 [19]: 22 µM | TGI [19]: 69.6 µM | GI50 [20]: 25.5 µM | TGI [20]: 75.5 µM | GI50 [21]: > 100 µM | TGI [21]: > 100 µM | GI50 [22]: 69.9 µM | TGI [22]: > 100 µM | GI50 [23]: 22.7 µM | TGI [23]: > 100 µM | GI50 [24]: > 100 µM | TGI [24]: > 100 µM | GI50 [25]: 23.8 µM | TGI [25]: 69.9 µM | GI50 [26]: 60.7 µM | TGI [26]: > 100 µM | GI50 [27]: 42.9 µM | TGI [27]: > 100 µM | GI50 [28]: > 100 µM | TGI [28]: > 100 µM | GI50 [29]: 34.1 µM | TGI [29]: > 100 µM | GI50 [30]: > 100 µM | TGI [30]: > 100 µM | GI50 [31]: 11.5 µM | TGI [31]: > 100 µM | GI50 [32]: > 100 µM | TGI [32]: > 100 µM | GI50 [33]: > 100 µM | TGI [33]: > 100 µM | GI50 [34]: > 100 µM | TGI [34]: > 100 µM | GI50 [35]: 65.9 µM | TGI [35]: > 100 µM | GI50 [36]: > 100 µM | TGI [36]: > 100 µM | GI50 [37]: 57.5 µM | TGI [37]: > 100 µM | GI50 [38]: > 100 µM | TGI [38]: > 100 µM | GI50 [39]: > 100 µM | TGI [39]: > 100 µM | GI50 [40]: 30.5 µM | TGI [40]: > 100 µM | GI50 [41]: > 100 µM | TGI [41]: > 100 µM | GI50 [42]: 34.1 µM | TGI [42]: > 100 µM | GI50 [43]: > 100 µM | TGI [43]: > 100 µM | GI50 [44]: 19.5 µM | TGI [44]: 41.5 µM | GI50 [45]: > 100 µM | TGI [45]: > 100 µM | GI50 [46]: 26.5 µM | TGI [46]: > 100 µM | GI50 [47]: > 100 µM | TGI [47]: > 100 µM | GI50 [48]: 61.8 µM | TGI [48]: > 100 µM | GI50 [49]: 93.3 µM | TGI [49]: > 100 µM | GI50 [50]: > 100 µM | TGI [50]: > 100 µM | GI50 [51]: > 100 µM | TGI [51]: > 100 µM | GI50 [52]: > 100 µM | TGI [52]: > 100 µM | GI50 [53]: 31.2 µM | TGI [53]: > 100 µM | GI50 [54]: > 100 µM | TGI [54]: > 100 µM | GI50 [55]: 27.7 µM | TGI [55]: > 100 µM | GI50 [56]: 40.9 µM | TGI [56]: > 100 µM | GI50 [57]: 32.6 µM | TGI [57]: > 100 µM

O=C1Nc2cc(Cl)ccc2/C1=C\c1ccc(OCc2ccc(Br)cc2F)cc1
GI50 [1]: 3.12 µM | TGI [1]: 73.7 µM | GI50 [2]: 2.27 µM | TGI [2]: 6.69 µM | GI50 [3]: 1.86 µM | TGI [3]: 4.09 µM | GI50 [4]: 1.66 µM | TGI [4]: 3.18 µM | GI50 [5]: 3.74 µM | TGI [5]: 22 µM | GI50 [6]: 2.29 µM | TGI [6]: 6.34 µM | GI50 [7]: 2.58 µM | TGI [7]: 12.4 µM | GI50 [8]: 1.98 µM | TGI [8]: 3.66 µM | GI50 [9]: 1.81 µM | TGI [9]: 3.39 µM | GI50 [10]: 1.7 µM | TGI [10]: 3.49 µM | GI50 [11]: 5.53 µM | TGI [11]: 82.4 µM | GI50 [12]: 1.84 µM | TGI [12]: 3.71 µM | GI50 [13]: 2.26 µM | TGI [13]: 5.38 µM | GI50 [14]: 1.25 µM | TGI [14]: 15.2 µM | GI50 [15]: 0.459 µM | TGI [15]: 1.7 µM | GI50 [16]: 3.3 µM | TGI [16]: 18.4 µM | GI50 [17]: 1.68 µM | TGI [17]: 3.35 µM | GI50 [18]: 1.8 µM | TGI [18]: 4.33 µM | GI50 [19]: 2.59 µM | TGI [19]: 8.18 µM | GI50 [20]: 1.9 µM | TGI [20]: 4.56 µM | GI50 [21]: 1.69 µM | TGI [21]: 3.33 µM | GI50 [22]: 1.69 µM | TGI [22]: 3.21 µM | GI50 [23]: 3.3 µM | TGI [23]: > 100 µM | GI50 [24]: 2.04 µM | TGI [24]: 4.62 µM | GI50 [25]: 3.55 µM | TGI [25]: 50.1 µM | GI50 [26]: 1.91 µM | TGI [26]: 6.2 µM | GI50 [27]: 2.84 µM | TGI [27]: 8.37 µM | GI50 [28]: 2.46 µM | TGI [28]: 6.89 µM | GI50 [29]: 4.14 µM | TGI [29]: 37.4 µM | GI50 [30]: 3.85 µM | TGI [30]: 18 µM | GI50 [31]: 2.3 µM | TGI [31]: 6.6 µM | GI50 [32]: 2.31 µM | TGI [32]: 6 µM | GI50 [33]: 2.2 µM | TGI [33]: 5.34 µM | GI50 [34]: 2.19 µM | TGI [34]: 6.89 µM | GI50 [35]: 1.67 µM | TGI [35]: 3.35 µM | GI50 [36]: 2.5 µM | TGI [36]: 5.95 µM | GI50 [37]: 1.49 µM | TGI [37]: 4.75 µM | GI50 [38]: 1.79 µM | TGI [38]: 3.76 µM | GI50 [39]: 2.97 µM | TGI [39]: 9.98 µM | GI50 [40]: 3.71 µM | TGI [40]: > 100 µM | GI50 [41]: 2.51 µM | TGI [41]: 4.59 µM | GI50 [42]: 1.38 µM | TGI [42]: 2.87 µM | GI50 [43]: 2.08 µM | TGI [43]: 4.72 µM | GI50 [44]: 1.49 µM | TGI [44]: 2.88 µM | GI50 [45]: 2.07 µM | TGI [45]: 5.13 µM | GI50 [46]: 53 µM | TGI [46]: > 100 µM | GI50 [47]: 2.93 µM | TGI [47]: > 100 µM | GI50 [48]: 1.22 µM | TGI [48]: 3.85 µM | GI50 [49]: 1.89 µM | TGI [49]: 3.5 µM | GI50 [50]: 4.16 µM | TGI [50]: > 100 µM | GI50 [51]: 2.1 µM | TGI [51]: 4.69 µM | GI50 [52]: 1.92 µM | TGI [52]: 4.29 µM | GI50 [53]: 1.65 µM | TGI [53]: 3.2 µM | GI50 [54]: 1.83 µM | TGI [54]: 4.04 µM | GI50 [55]: 2.37 µM | TGI [55]: 6.4 µM | GI50 [56]: 1.97 µM | TGI [56]: 4.27 µM | GI50 [57]: 3.57 µM | TGI [57]: 26.1 µM
